Tests used:
Akt phosphorylation = experiment: Akt Phosphorylation Assay (western blot), Panc-1; assay type: cell-based, human; details: at 10 μM, * = activation
Summary of the method: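 Panc-1 (KRas G12D) cells were treated with compound at 10 μM final (0.3% DMSO) for 6 h at 37 °C, or with serial dilutions for IC50. Cells were either serum-starved overnight in 0.5% FBS and then stimulated with 1.5 ng/ml EGF for 15 min, or kept in 10% FBS without stimulation. Akt Ser473 phosphorylation in lysates was read by western blot.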

KRas G12C mutant = experiment: Ras GTP Binding Domain Inhibition Assay (Ras Superfamily Assay); details: 20 μM compound; for KRas G12C mutant + SOS: % inh.: with SOS; for KRas G12C mutant: % inh.: without SOS
Summary of the method: (§1)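 Ni-plate capture of His-tagged protein (10-30 μg/mL, o/n 4° C); cpd 20 μM or dilution series, 1% DMSO, 3 h RT ± Sos 556-1049 last h; 100 nM Cy-labelled GTP 45 min RT; 3× wash; fluorescence read.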

KRas G12D mutant = experiment: as above; details: 20 μM compound; for KRas G12D mutant + SOS: % inh.: with SOS; for KRas G12D mutant: % inh.: without SOS
Summary of the method: as §1

KRas Q61H mutant = experiment: as above; details: 20 μM compound; for KRas Q61H mutant + SOS: % inh.: with SOS; for KRas Q61H mutant: % inh.: without SOS
Summary of the method: as §1

KRas wild type = experiment: as above; details: 20 μM compound; for KRas wild type + SOS: % inh.: with SOS; for KRas wild type: % inh.: without SOS
Summary of the method: as §1

Rac-1 = biological target: T1, Rac-1 (Homo sapiens, UniProt P63000); experiment: as above; details: read-out: Rac-1: % inh.
T1 construct: made in house
Summary of the method: as §1

Rho-A = biological target: T2, Rho-A (Homo sapiens, UniProt P61586); experiment: as above; details: read-out: Rho-A: % inh..
T2 construct: made in house
T2 sequence (P61586 whole entry): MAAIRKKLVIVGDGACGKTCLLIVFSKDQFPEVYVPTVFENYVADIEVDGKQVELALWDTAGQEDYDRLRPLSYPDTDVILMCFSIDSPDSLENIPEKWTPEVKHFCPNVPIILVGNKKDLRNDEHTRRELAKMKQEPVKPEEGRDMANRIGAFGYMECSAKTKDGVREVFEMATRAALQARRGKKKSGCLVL
Summary of the method: as §1

Structure (SMILES)	% inh of Akt phosphorylation in Panc-1 (Akt phosphorylation)	KRas G12C mutant + SOS: % inh. (KRas G12C mutant)	KRas G12C mutant: % inh. (KRas G12C mutant)	KRas G12D mutant + SOS: % inh. (KRas G12D mutant)	KRas G12D mutant: % inh. (KRas G12D mutant)	KRas Q61H mutant + SOS: % inh. (KRas Q61H mutant)	KRas Q61H mutant: % inh. (KRas Q61H mutant)	KRas wild type + SOS: % inh. (KRas wild type)	KRas wild type: % inh. (KRas wild type)	inhibition at 20 µM (Rac-1)	inhibition at 20 µM (Rho-A)
COc1cc(Nc2nc(-c3nccn3C)nn3cc(-c4cccnc4)c(C)c23)ncn1 [Compound 48, N-(6-Methoxypyrimidin-4-yl)-5-methyl-2-(1-methyl-1H-imidazol-2-yl)-6-(pyridin-3-yl)pyrrolo[2,1-f][1,2,4]triazin-4-amine]	D* (85-100% activation)	A (A = 1-25% inhibition)	C (C = 50-75% inhibition)	C (C = 50-75% inhibition)	C (C = 50-75% inhibition)	D (D = 76-100% inhibition)	D (D = 76-100% inhibition)	B (B = 26-49% inhibition)	C (C = 50-75% inhibition)	50 to 75%	76 to 100%
Cc1c(-c2ccn(C(C)C)n2)cn2nc(-c3nccn3C)nc(Nc3ccn(C(C)C)n3)c12 [Compound 72, N,6-bis(1-Isopropyl-1H-pyrazol-3-yl)-5-methyl-2-(1-methyl-1H-imidazol-2-yl)pyrrolo[2,1-f][1,2,4]triazin-4-amine]	D* (85-100% activation)	C (C = 50-75% inhibition)	C (C = 50-75% inhibition)	D (D = 76-100% inhibition)	D (D = 76-100% inhibition)	D (D = 76-100% inhibition)	C (C = 50-75% inhibition)	C (C = 50-75% inhibition)	C (C = 50-75% inhibition)	76 to 100%	76 to 100%
CCn1ccc(-c2cn3nc(-c4nccn4C)nc(Nc4cc(OC)ncn4)c3c2C)n1 [Compound 64, 6-(1-Ethyl-1H-pyrazol-3-yl)-N-(6-methoxypyrimidin-4-yl)-5-methyl-2-(1-methyl-1H-imidazol-2-yl)pyrrolo[2,1-f][1,2,4]triazin-4-amine]	D* (85-100% activation)	C (C = 50-75% inhibition)	D (D = 76-100% inhibition)	D (D = 76-100% inhibition)	D (D = 76-100% inhibition)	D (D = 76-100% inhibition)	D (D = 76-100% inhibition)	D (D = 76-100% inhibition)	D (D = 76-100% inhibition)	76 to 100%	76 to 100%
COc1cccc(-c2cn3nc(-c4nccn4C)nc(N[C@H]4C[C@@H](OC)C4)c3c2-c2ccccc2)c1Cl [Compound 31, 6-(2-Chloro-3-methoxyphenyl)-N-((1s,3s)-3-methoxycyclobutyl)-2-(1-methyl-1H-imidazol-2-yl)-5-phenylpyrrolo[2,1-f][1,2,4]triazin-4-amine]	D (85-100% inhibition)	0 (0 = 0% inhibition)	A (A = 1-25% inhibition)	B (B = 26-49% inhibition)	A (A = 1-25% inhibition)	A (A = 1-25% inhibition)	0 (0 = 0% inhibition)	0 (0 = 0% inhibition)	A (A = 1-25% inhibition)	1 to 25%	1 to 25%
COCCNc1nc(-c2nccn2C)nn2cc(-c3cccc(OC)c3Cl)c(-c3ccccc3)c12 [Compound 29, 6-(2-Chloro-3-methoxyphenyl)-N-(2-methoxyethyl)-2-(1-methyl-1H-imidazol-2-yl)-5-phenylpyrrolo[2,1-f][1,2,4]triazin-4-amine]	D (85-100% inhibition)	A (A = 1-25% inhibition)	0 (0 = 0% inhibition)	A (A = 1-25% inhibition)	0 (0 = 0% inhibition)	0 (0 = 0% inhibition)	0 (0 = 0% inhibition)	0 (0 = 0% inhibition)	A (A = 1-25% inhibition)	0%	1 to 25%
COCCNc1nc(-c2nccn2C)nn2cc(-c3ccn(C(C)C)n3)c(C(C)C)c12 [Compound 35, 5-Isopropyl-6-(1-isopropyl-1H-pyrazol-3-yl)-N-(2-methoxyethyl)-2-(1-methyl-1H-imidazol-2-yl)pyrrolo[2,1-f][1,2,4]triazin-4-amine]	0 (0% inhibition)	0 (0 = 0% inhibition)	A (A = 1-25% inhibition)	0 (0 = 0% inhibition)	0 (0 = 0% inhibition)	A (A = 1-25% inhibition)	A (A = 1-25% inhibition)	A (A = 1-25% inhibition)	A (A = 1-25% inhibition)	0%	1 to 25%
CO[C@H]1CC[C@@H](Nc2nc(-c3ccccn3)nn3cc(-c4ccn(C(C)C)n4)c(-c4ccccc4)c23)C1 (racemic) [Compound 24, rac 6-(1-Isopropyl-1H-pyrazol-3-yl)-N-((1R,3S)-3-methoxycyclopentyl)-5-phenyl-2-(pyridin-2-yl)pyrrolo[2,1-f][1,2,4]triazin-4-amine]	A* (1-25% activation)	0 (0 = 0% inhibition)	0 (0 = 0% inhibition)	0 (0 = 0% inhibition)	0 (0 = 0% inhibition)	0 (0 = 0% inhibition)	0 (0 = 0% inhibition)	0 (0 = 0% inhibition)	0 (0 = 0% inhibition)	0%	0%
COc1cc(Nc2nc(-c3nccn3C)nn3cc(-c4cccc(OC)n4)c(C)c23)ncn1 [Compound 65, 6-(6-Methoxypyridin-2-yl)-N-(6-methoxypyrimidin-4-yl)-5-methyl-2-(1-methyl-1H-imidazol-2-yl)pyrrolo[2,1-f][1,2,4]triazin-4-amine]	D* (85-100% activation)	A (A = 1-25% inhibition)	C (C = 50-75% inhibition)	C (C = 50-75% inhibition)	C (C = 50-75% inhibition)	C (C = 50-75% inhibition)	C (C = 50-75% inhibition)	B (B = 26-49% inhibition)	C (C = 50-75% inhibition)	76 to 100%	76 to 100%
COc1ccc(Nc2nc(-c3nccn3C)nn3cc(-c4ccn(C(C)C)n4)c(C)c23)cn1 [Compound 71, 6-(1-Isopropyl-1H-pyrazol-3-yl)-N-(6-methoxypyridin-3-yl)-5-methyl-2-(1-methyl-1H-imidazol-2-yl)pyrrolo[2,1-f][1,2,4]triazin-4-amine]	D* (85-100% activation)	A (A = 1-25% inhibition)	0 (0 = 0% inhibition)	A (A = 1-25% inhibition)	A (A = 1-25% inhibition)	0 (0 = 0% inhibition)	0 (0 = 0% inhibition)	A (A = 1-25% inhibition)	0 (0 = 0% inhibition)	1 to 25%	1 to 25%
